# According to PubChem BioAssay AID2060882 (Molecular Pharmacology Branch, DTP, NCI, 2025):
# Test system: 898857-211-R-J1-PDC complex spheroids, growth % test/control
# Assay: Anticancer human tumor 898857-211-R-J1-PDC patient-derived melanoma cell line growth inhibition [RAS]
# Settings: for IC50: curve of first compound; for viability, T/C: stronger effect = lower value
# From the text: RAS pathway inhibitors in Combinations in Complex Spheroids
# A high-throughput screen of multi-cell type tumor spheroids was designed to identify active combinations of RAS pathway inhibitors and targeted small molecules. Complex spheroids include a stromal component modeled by human endothelial cells (HUVEC) and fibroblasts modeled by human mesenchymal stem cells (MSCs). The concentration ranges selected for each drug and investigational agent were based upon clinically achievable concentrations if the clinical Cmax of the agent was known.
# Compounds. The drugs and investigational agents: abemaciclib (NSC768073), cobimetinib (NSC768068), divarasib (GDC6063, NSC841802), docetaxel (NSC628503), GDC-1971 (RLY-1971, NSC841576), gemcitabine (NSC613327), inavolisib (NSC800729), ipatasertib (NSC767898), KB-0742 (NSC834161), MRTX-1133 (NSC836407), osimertinib (NSC779217), RMC-4630 (NSC839698), RMC-6236 (NSC851965), RMC-6291 (NSC852671), Ro-3306 (NSC812927), sapanisertib (NSC764658), SN-38 (NSC673596), staurosporine (NSC755774), SY5609 (NSC837396), and tovorafenib (DAY101, NSC766906), were obtained from the National Cancer Institute (NCI) Developmental Therapeutics Program Chemical Repository. The FDA-approved anticancer drug set is available from the NCI Developmental Therapeutics Program. […] The stock solutions were prepared in dimethyl sulfoxide (DMSO, Sigma-Aldrich, St. Louis, MO, cat. D2650) at 800-fold the tested concentration and stored at -70 degrees C prior to their use. All drugs and investigational agents were tested over a range starting from a high concentration at or near the clinical Cmax and decreasing in half-log increments. If the clinical Cmax for an agent had not been determined, the highest concentration tested was 10 microM.
# Cell Culture. All cells were maintained in an incubator at 37 degrees C and 5% CO2 with 95% humidity. The PDC lines were cultured according to standard operating procedures established by the NCI PDMR. All PDCs were thawed and cultured in Matrigel-coated flasks prepared with a working solution of 1X Ham's F-12 nutrient mix, without supplementation (Invitrogen, Waltham, MA, cat. 11765054), 100 U/mL penicillin-streptomycin (Invitrogen, cat. 15140122), and 2.5% Matrigel (Corning Inc., Corning, NY, cat. 354248) for the first three passages. The 362531-283-R-J2-PDC and 782815-120-R-J1-PDC lines were cultured in 6C/Colon 1B media, which includes advanced DMEM/F-12 (Thermo Fisher Scientific, cat. 12634028), 10 mM HEPES (Thermo Fisher Scientific, cat. 15630080), 1X GlutaMAX supplement (Thermo Fisher Scientific, cat. 35050061), 0.1 mg/mL primocin (InvivoGen, San Diego, CA, cat. ant-pm-2), 10% defined fetal bovine serum, heat inactivated (HyClone Laboratories Inc., Logan, UT, cat. SH30070.03HI), 50% L-WRN conditioned media (ATCC, cat. CRL-3276), 1.25 mM N-Acetyl-L-cysteine (Sigma-Aldrich, cat. A9165), 10 mM nicotinamide (Sigma-Aldrich, cat. N0636), 1X B-27 supplement (Thermo Fisher Scientific, cat. 17504044), 1X N-2 supplement (Thermo Fisher Scientific, cat. 17502048), 50 ng/mL human EGF (Thermo Fisher Scientific, cat. PHG0311), and 10 microM Y-27632 dihydrochloride (Tocris Bioscience, cat. 1254). The K12877-001-R-J1-PDC line was cultured in 6I media, which includes all 6C/Colon 1B media plus 10 ng/mL human FGF-10 (PeproTech, cat. 100-26), 1 ng/mL human FGF-2 (PeproTech, cat. 100-18B), 1 µM prostaglandin E2 (Tocris Bioscience, cat. 2296), […] hydrocortisone (Sigma-Aldrich, cat. H4001), and […] bovine insulin (Sigma-Aldrich, cat. I6634). The K86415-001-R-J1-PDC line was cultured in 6D media, which includes all 6C/Colon 1B media components minus the L-WRN conditioned media. The 485176-168-R4-J1-PDC was cultured in PANC media, which includes all 6C/Colon 1B media plus 100 ng/mL human FGF-10 (PeproTech, cat. 100-26), 500 nM SB-431542 (Selleckchem, cat. S1067), and 10 nM gastrin (Tocris Bioscience, cat. 3006). […]
# [1] = second compound 0.0316 µM, first compound 0.0316 µM
# [2] = second compound 0.0316 µM, first compound 0.1 µM
# [3] = second compound 0.0316 µM, first compound 0.316 µM
# [4] = second compound 0.0316 µM, first compound 1 µM
# [5] = second compound 0.1 µM, first compound 0.0316 µM
# [6] = second compound 0.1 µM, first compound 0.1 µM
# [7] = second compound 0.1 µM, first compound 0.316 µM
# [8] = second compound 0.1 µM, first compound 1 µM
# [9] = second compound 0.316 µM, first compound 0.0316 µM
# [10] = second compound 0.316 µM, first compound 0.1 µM
# [11] = second compound 0.316 µM, first compound 0.316 µM
# [12] = second compound 0.316 µM, first compound 1 µM
# [13] = second compound 1 µM, first compound 0.0316 µM
# [14] = second compound 1 µM, first compound 0.1 µM
# [15] = second compound 1 µM, first compound 0.316 µM
# [16] = second compound 1 µM, first compound 1 µM
# [17] = second compound 3.16 µM, first compound 0.0316 µM
# [18] = second compound 3.16 µM, first compound 0.1 µM
# [19] = second compound 3.16 µM, first compound 0.316 µM
# [20] = second compound 3.16 µM, first compound 1 µM
# [21] = second compound 10 µM, first compound 0.0316 µM
# [22] = second compound 10 µM, first compound 0.1 µM
# [23] = second compound 10 µM, first compound 0.316 µM
# [24] = second compound 10 µM, first compound 1 µM
# 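Further: spheroids exposed to compound for seven days before readout.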
# 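Wherever viability, T/C is given: 100% = DMSO vehicle control wells.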
smiles,measurement,setting,value
CC1(O)CCCC1n1c(=O)c(C(F)F)cc2cnc(NC3CCN(S(C)(=O)=O)CC3)nc21 (centres undefined) + C#Cc1c(F)ccc2cc(O)cc(-c3ncc4c(N5CC6CCC(C5)N6)nc(OCC56CCCN5CC(F)C6)nc4c3F)c12,IC50,second compound 0.0316 µM,584 nM
same,IC50,second compound 0.1 µM,129 nM
same,IC50,second compound 0.316 µM,334 nM
same,IC50,second compound 1 µM,529 nM
same,IC50,second compound 3.16 µM,321 nM
same,IC50,second compound 10 µM,< 31.6 nM
same,"viability, T/C",[1],66.1%
same,"viability, T/C",[2],53.6%
same,"viability, T/C",[3],44.3%
same,"viability, T/C",[4],49.5%
same,"viability, T/C","second compound 0.0316 µM, first compound 3.16 µM",43.1%
same,"viability, T/C","second compound 0.0316 µM, first compound 10 µM",19.9%
same,"viability, T/C",[5],95%
same,"viability, T/C",[6],52.6%
same,"viability, T/C",[7],38.7%
same,"viability, T/C",[8],43.4%
same,"viability, T/C","second compound 0.1 µM, first compound 3.16 µM",48.3%
same,"viability, T/C","second compound 0.1 µM, first compound 10 µM",23.4%
same,"viability, T/C",[9],76.8%
same,"viability, T/C",[10],50.7%
same,"viability, T/C",[11],41.8%
same,"viability, T/C",[12],49.8%
same,"viability, T/C","second compound 0.316 µM, first compound 3.16 µM",43.5%
same,"viability, T/C","second compound 0.316 µM, first compound 10 µM",19.4%
same,"viability, T/C",[13],79%
same,"viability, T/C",[14],57.6%
same,"viability, T/C",[15],46.2%
same,"viability, T/C",[16],46.8%
same,"viability, T/C","second compound 1 µM, first compound 3.16 µM",48.3%
same,"viability, T/C","second compound 1 µM, first compound 10 µM",18.1%
same,"viability, T/C",[17],88.7%
same,"viability, T/C",[18],54.5%
same,"viability, T/C",[19],49.4%
same,"viability, T/C",[20],41.5%
same,"viability, T/C","second compound 3.16 µM, first compound 3.16 µM",46.7%
same,"viability, T/C","second compound 3.16 µM, first compound 10 µM",16.5%
same,"viability, T/C",[21],37.5%
same,"viability, T/C",[22],24.6%
same,"viability, T/C",[23],26.9%
same,"viability, T/C",[24],27.1%
same,"viability, T/C","second compound 10 µM, first compound 3.16 µM",35.8%
same,"viability, T/C","second compound 10 µM, first compound 10 µM",2.8%
CCN1CCN(Cc2ccc(Nc3ncc(F)c(-c4cc(F)c5nc(C)n(C(C)C)c5c4)n3)nc2)CC1 + C#Cc1c(F)ccc2cc(O)cc(-c3ncc4c(N5CC6CCC(C5)N6)nc(OCC56CCCN5CC(F)C6)nc4c3F)c12,IC50,second compound 0.0316 µM,269 nM
same,IC50,second compound 0.1 µM,256 nM
same,IC50,second compound 0.316 µM,235 nM
same,IC50,second compound 1 µM,298 nM
same,IC50,second compound 3.16 µM,196 nM
same,IC50,second compound 10 µM,6.16 nM
same,"viability, T/C","second compound 0.0316 µM, first compound 0.00316 µM",98.6%
same,"viability, T/C","second compound 0.0316 µM, first compound 0.01 µM",87.4%
same,"viability, T/C",[1],91.9%
same,"viability, T/C",[2],74.3%
same,"viability, T/C",[3],46%
same,"viability, T/C",[4],37.5%
same,"viability, T/C","second compound 0.1 µM, first compound 0.00316 µM",101%
same,"viability, T/C","second compound 0.1 µM, first compound 0.01 µM",92.6%
same,"viability, T/C",[5],96.6%
same,"viability, T/C",[6],75.2%
same,"viability, T/C",[7],44.4%
same,"viability, T/C",[8],42.1%
same,"viability, T/C","second compound 0.316 µM, first compound 0.00316 µM",112%
same,"viability, T/C","second compound 0.316 µM, first compound 0.01 µM",99.5%
same,"viability, T/C",[9],96%
same,"viability, T/C",[10],65.4%
same,"viability, T/C",[11],44.9%
same,"viability, T/C",[12],32.2%
same,"viability, T/C","second compound 1 µM, first compound 0.00316 µM",93%
same,"viability, T/C","second compound 1 µM, first compound 0.01 µM",101%
same,"viability, T/C",[13],96.5%
same,"viability, T/C",[14],72.1%
same,"viability, T/C",[15],51.2%
same,"viability, T/C",[16],38.2%
same,"viability, T/C","second compound 3.16 µM, first compound 0.00316 µM",107%
same,"viability, T/C","second compound 3.16 µM, first compound 0.01 µM",92.3%
same,"viability, T/C",[17],91.2%
same,"viability, T/C",[18],56.5%
same,"viability, T/C",[19],45.9%
same,"viability, T/C",[20],33.6%
same,"viability, T/C","second compound 10 µM, first compound 0.00316 µM",56.4%
same,"viability, T/C","second compound 10 µM, first compound 0.01 µM",45.8%
same,"viability, T/C",[21],32.5%
same,"viability, T/C",[22],21.5%
same,"viability, T/C",[23],11.3%
same,"viability, T/C",[24],2.36%
